Reference: PubChem BioAssay AID1845215 (Molecular Pharmacology Branch, DTP, NCI, 2023)
“And” between values parts separate entries of the source, which are not always exact repeats. Identical values can stand only once. The source made the active and inactive calls. Rule for the calls: active = viability on the fitted dose curve at most 10% of control; inactive = the rest.

System: SW 1271 complex tumor spheroid viability
Test: Anticancer human tumor SW 1271 cell line growth inhibition;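 for IC50: spheroids exposed to agents for seven days before readout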;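 for viability, T/C: spheroids exposed to agents for seven days before readout; percent of DMSO vehicle control luminescence so 100% = vehicle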
Settings: for viability, T/C: stronger effect = lower value
From the text: Multicellular complex tumor spheroid response to DNA repair inhibitors in combination with DNA-damaging drugs
This study explores the anticancer activities of DNA-damaging drugs and inhibitors of DNA damage repair, both as single agents and in combinations. Complex tumor spheroids comprised of malignant cells, endothelial cells and mesenchymal stem cells served as an in vitro model for human solid tumors. This model system incorporates physiologically relevant features and patient-derived or established malignant cell lines with clinically relevant genetic alterations from many tumor types. Twenty-six patient-derived or established malignant cell lines were evaluated representing sarcoma, melanoma, small cell lung cancer (SCLC), non-small cell lung cancer (NSCLC), as well as bladder, ovarian and pancreatic cancers. The concentration ranges selected for each drug and investigational agent were based upon clinically achievable concentrations if the clinical Cmax of the agent was known.
Compounds. The drugs and compounds olaparib (NSC753686), talazoparib (NSC767125), berzosertib (NSC777718), elimusertib (NSC800525), nedisertib (NSC802822), VX-984 (NSC792969), AZD-1390 (NSC803789), temozolomide (NSC362856), topotecan (NSC609699), trabectedin (NSC813783), staurosporine (NSC755774), and gemcitabine (NSC613327) were obtained from the National Cancer Institute (NCI) Developmental Therapeutics Program Chemical Repository. The FDA-approved anticancer drug set is available from the Developmental Therapeutics Program at https://dtp.cancer.gov/organization/dscb/obtaining/available_plates.htm. […] The stock solutions were prepared in dimethyl sulfoxide (DMSO, Sigma-Aldrich, St. Louis, MO, cat. D2650) at 400-fold the tested concentration and stored at -70 degrees C. Prior to their use, the stock solutions were diluted in fresh medium and the final DMSO concentration in the assay was 0.25% (v/v). All drugs and investigational agents were tested over a range starting from a high concentration at or near the clinical Cmax and decreasing in half-log increments. If the clinical Cmax for an agent had not been determined, the highest concentration tested was 10 microM.
Cell Lines. The patient-derived cancer cell (PDC) lines: 156681-154-R-J1-PDC, 283228-195-R-J1-PDC, 287954-098-R-J1-PDC, 292921-168-R-J2-PDC, 349418-098-R-PDC, 425362-245-T-J1-PDC, 556581-035-R-J1-PDC, and BL0293-F563-PDC were received from the NCI Patient-Derived Models Repository (PDMR, https://pdmr.cancer.gov). The established cell lines HS-SY-2 (RRID:CVCL_8719), MPNST, and SYO-1 (RRID:CVCL_7146) were obtained from the Sloan Kettering Institute. The alveolar soft parts sarcoma cell line ASPS-1 (RRID:CVCL_S738) was established at the NCI and grown from internal seed stocks. The following established cell lines were purchased from the American Type Culture Collection (ATCC, Manassas, VA): G-401 (ATCC, cat. CRL-1441, RRID:CVCL_0270), SW982 (ATCC, cat. HTB-93, RRID:CVCL_1734), VA-ES-BJ (ATCC, cat. CRL-2138, RRID:CVCL_1785), NCI-H719 (ATCC, cat. CRL-5837, RRID:CVCL_1582), NCI-H196 (ATCC, cat. CRL-5823, RRID:CVCL_1509), NCI-H841 (ATCC, cat. CRL-5845, RRID:CVCL_1595), NCI-H1618 (ATCC, cat. CRL-5879, RRID:CVCL_1480), NCI-H1876 (ATCC, cat. CRL-5902, RRID:CVCL_1503), DMS 114 (ATCC, cat. CRL-2066; RRID:CVCL_1174), NCI-H211 (ATCC, cat. CRL-5824; RRID:CVCL_1529), and SW 1271 (ATCC, cat. CRL-2177, RRID:CVCL_1716). The small cell lung cancer cell line COR-L88 was purchased from Sigma-Aldrich (cat. 92031917-1VL, RRID:CVCL_1141). The non-small cell lung cancer cell lines NCI-H226 (RRID:CVCL_1544) and NCI-H322M (RRID:CVCL_1557) were established at the NCI and grown from internal seed stocks. Pooled donor human umbilical vein endothelial cells (HUVEC, Lonza, cat. CC-2519) and human mesenchymal stem cells (hMSC, Lonza, cat. PT-2501) were purchased from Lonza (Walkersville, MD).
Cell Culture. All cells were maintained in an incubator at 37 degrees C and 5% CO2 with 95% humidity. […]

[1] = compound alone, run of 11/07/2019
[2] = compound alone, run of 12/16/2019

CC(C)n1c(=O)n(C)c2cnc3cc(F)c(-c4ccc(OCCCN5CCCCC5)nc4)cc3c21
viability, T/C (compound 0.0316 µM): 94.1% and 98.9% and 79.6% | outcome (compound 0.1 µM): inactive | viability, T/C (compound 0.1 µM): 86.3% and 78.7% | viability, T/C (compound 0.316 µM): 92.8% and 94.3% and 72.7% | viability, T/C (compound 1 µM): 94.6% and 83.5% and 71.3% | viability, T/C (compound 3.16 µM): 86.3% and 70.8% and 59.2% | viability, T/C (compound 10 µM): 60.3% and 48.2% and 20.9% | IC50 (curve of compound): > 10000 nM and 9160 nM and 4080 nM

CC1COCCN1c1cc(-c2ccnn2C)c2ccnc(-c3ccn[nH]3)c2n1 (configuration not stated)
viability, T/C (compound 0.0316 µM): 76.6% and 87.1% and 78.6% | viability, T/C (compound 0.1 µM): 50.5% and 44.6% and 58.8% | viability, T/C (compound 0.316 µM): 25.2% and 31.1% and 21.6% | viability, T/C (compound 1 µM): 4.08% and 5.26% and 4.1% | viability, T/C (compound 3.16 µM): 2.44% and 3.8% and 2.04% | viability, T/C (compound 10 µM): 2.18% and 3.01% and 1.85% | IC50 (curve of compound): 107 nM and 93.4 nM and 131 nM

CC[C@@]1(O)C(=O)OCc2c1cc1n(c2=O)Cc2cc3c(CN(C)C)c(O)ccc3nc2-1
viability, T/C (compound 0.003 µM): 88.3% [middle of 10 runs] | viability, T/C (compound 0.03 µM): 28.2% [middle of 10 runs] | viability, T/C (compound 0.0949 µM): 27.2% [middle of 10 runs] | viability, T/C (compound 0.3 µM): 16.7% [middle of 10 runs] | IC50 [1]: 8.96 nM [middle of 5 runs] | IC50 [2]: 11.7 nM [middle of 5 runs]

CNCc1ccc(-c2cc(-c3nc(-c4ccc(S(=O)(=O)C(C)C)cc4)cnc3N)on2)cc1
viability, T/C (compound 0.00949 µM): 105% and 99.4% and 104% | viability, T/C (compound 0.03 µM): 103% and 101% and 109% | viability, T/C (compound 0.0949 µM): 92% and 70.1% and 88.4% | viability, T/C (compound 0.3 µM): 26.4% and 24.2% and 45.3% | viability, T/C (compound 0.949 µM): 6.64% and 6.62% and 10.9% | viability, T/C (compound 3 µM): 0.13% and 0.12% and 0.2% | IC50 (curve of compound): 199 nM and 159 nM and 266 nM

COc1cc(C)[nH]c(=O)c1CN1CCc2c(Cl)cc(C(OC)C3COC3)c(Cl)c2C1=O (configuration not stated)
viability, T/C (compound 0.0316 µM): 98.5% and 98.1% and 104% | viability, T/C (compound 0.1 µM): 101% and 92.7% and 98.5% | viability, T/C (compound 0.316 µM): 102% and 86.8% and 91.5% | viability, T/C (compound 1 µM): 105% and 89.8% and 94.6% | viability, T/C (compound 3.16 µM): 94.8% and 79.1% and 95.3% | viability, T/C (compound 10 µM): 84% and 75.4% and 81.9% | IC50 (curve of compound): > 10000 nM

COc1cc2c(cc1O)CCNC21CSC2c3c(OC(C)=O)c(C)c4c(c3C(COC1=O)N1C(O)C3Cc5cc(C)c(OC)c(O)c5C(C21)N3C)OCO4 (configuration not stated)
viability, T/C (compound 30 pM): 89.8% [middle of 10 runs] | viability, T/C (compound 94.9 pM): 64.2% [middle of 10 runs] | viability, T/C (compound 0.0003 µM): 34.4% [middle of 10 runs] | viability, T/C (compound 0.000949 µM): 3.63% [middle of 10 runs] | viability, T/C (compound 0.003 µM): 0.11% [middle of 6 runs] | IC50 [2]: 0.156 nM [middle of 10 runs]

COc1ccc([C@@H](O)c2cc(-c3ncnc4cc(N5CCOCC5)ccc34)c(F)cc2Cl)nn1
viability, T/C (compound 0.0316 µM): 92.9% and 91.6% and 101% | viability, T/C (compound 0.1 µM): 93.1% and 83% and 92.6% | viability, T/C (compound 0.316 µM): 92.8% and 78.7% and 83.9% | outcome (compound 1 µM): inactive | viability, T/C (compound 1 µM): 77.2% and 72.9% | viability, T/C (compound 3.16 µM): 44.9% and 38.3% and 44% | viability, T/C (compound 10 µM): 8.13% and 13.3% and 6.11% | IC50 (curve of compound): 2630 nM and 1790 nM and 2520 nM

Cc1cc(C)c(CNC(=O)c2cc(-c3ccc(CN4CCOCC4)cc3)cc3c2cnn3C2CCCC2)c(=O)[nH]1
viability, T/C (compound 0.0316 µM): 99.2% and 98.8% and 97.6% | viability, T/C (compound 0.1 µM): 95.9% and 99.6% and 92.9% | viability, T/C (compound 0.316 µM): 96.5% and 95.6% and 98.5% | viability, T/C (compound 1 µM): 94.5% and 91.5% and 91.4% | viability, T/C (compound 3.16 µM): 98.9% and 85.2% and 85.7% | viability, T/C (compound 10 µM): 85.4% and 73% and 66.3% | IC50 (curve of compound): > 10000 nM

Cc1sc2c(c1C)C(c1ccc(Cl)cc1)=NC(CC(=O)Nc1ccc(O)cc1)c1nnc(C)n1-2 (configuration not stated)
viability, T/C (compound 0.00949 µM): 112% and 133% and 111% | viability, T/C (compound 0.03 µM): 98.6% and 108% and 112% | viability, T/C (compound 0.0949 µM): 38.7% and 40.3% and 67.7% | viability, T/C (compound 0.3 µM): 4.84% and 5.32% and 10.5% | viability, T/C (compound 0.949 µM): 1.98% and 1.57% and 1.36% | viability, T/C (compound 3 µM): 1.53% and 0.84% and 1.11% | IC50 (curve of compound): 76.2 nM and 80.2 nM and 136 nM

Cn1ncnc1[C@H]1c2n[nH]c(=O)c3cc(F)cc(c23)N[C@@H]1c1ccc(F)cc1
viability, T/C (compound 0.00949 µM): 39.3% and 40% and 67.2% | viability, T/C (compound 0.03 µM): 31.9% and 32.7% and 44.5% | viability, T/C (compound 0.0949 µM): 21.2% and 24.7% and 35.2% | viability, T/C (compound 0.3 µM): 24.9% and 26.4% and 34.4% | viability, T/C (compound 0.949 µM): 25.2% and 26.3% and 30.4% | viability, T/C (compound 3 µM): 21.1% and 25.1% and 26.3% | IC50 (curve of compound): < 9.49 nM and 23.5 nM

Cn1nnc2c(C(N)=O)ncn2c1=O
viability, T/C (compound 1 µM): 97% [middle of 10 runs] | viability, T/C (compound 3.16 µM): 103% [middle of 10 runs] | IC50 [1]: > 100000 nM and 20700 nM

O=C(c1cc(Cc2n[nH]c(=O)c3ccccc23)ccc1F)N1CCN(C(=O)C2CC2)CC1
viability, T/C (compound 0.0949 µM): 91.1% and 93% and 93.6% | viability, T/C (compound 0.3 µM): 77.1% and 81.2% and 80.7% | viability, T/C (compound 0.949 µM): 77% and 74.6% and 75.7% | viability, T/C (compound 3 µM): 41% and 45.6% and 42.4% | viability, T/C (compound 9.49 µM): 29.3% and 28.4% and 28.2% | viability, T/C (compound 30 µM): 24.2% (2×) and 16.6% | IC50 (curve of compound): 2270 nM and 2550 nM and 2470 nM

[2H]c1nc(C)nc([2H])c1-c1cc(NC[C@@H](C)c2cccc3c(C(=O)NC)ccnc23)ncn1
viability, T/C (compound 0.0316 µM): 96.9% and 105% and 108% | viability, T/C (compound 0.1 µM): 98.7% and 104% and 106% | viability, T/C (compound 0.316 µM): 101% and 95.6% and 96.8% | viability, T/C (compound 1 µM): 104% (2×) and 99.2% | viability, T/C (compound 3.16 µM): 98% and 96.2% and 104% | viability, T/C (compound 10 µM): 90.8% and 102% and 96.7% | IC50 (curve of compound): > 10000 nM
